# Measurements from the supplement of paper PMC10307832.
# What was measured:
# Assay in all cases: relative viability (nuclei count vs DMSO), 5 days (fraction); higher = more cells survive
# NCI-H2342 = test system: NCI-H2342
# Procedure, shortened: (§1)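 Relative viability was taken as the ratio of nuclei in treated wells to nuclei in vehicle wells. Lung cancer cell lines in 1536-well plates received compounds by pin tool one day after seeding, either one drug alone or a fixed anchor-drug dose plus five library-drug doses (not always all listed) in √10 steps. Nuclei were counted on 4× images after 5 days of treatment, and values are medians of duplicate plates.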
# NCI-H1355 = test system: NCI-H1355
# Procedure, shortened: as §1
# NCI-H1437 = test system: NCI-H1437
# Procedure, shortened: as §1
# NCI-H1648 = test system: NCI-H1648
# Procedure, shortened: as §1
# LCLC-97TM1 = test system: LCLC-97TM1
# Procedure, shortened: as §1
# NCI-H596 = test system: NCI-H596
# Procedure, shortened: as §1
# NCI-H1623 = test system: NCI-H1623
# Procedure, shortened: as §1
structure (smiles),measurement,setting,value
Cc1csc(=NC2CCCCC2)n1/N=C/c1ccc(O)c(O)c1O [MIM1] + COc1cccc2cc(-c3nc([C@H]4CC[C@H](C(=O)O)CC4)n4ncnc(N)c34)[nH]c12 [OSI-027] (partner 0.5 µM),relative viability,NCI-H2342; first compound 0.2 µM,0.675
same,relative viability,NCI-H2342; first compound 0.6325 µM,0.59
same,relative viability,NCI-H2342; first compound 2 µM,0.663
same,relative viability,NCI-H2342; first compound 6.325 µM,0.633
same,relative viability,NCI-H2342; first compound 20 µM,0.728
same,relative viability,NCI-H1355; first compound 0.2 µM,0.409
same,relative viability,NCI-H1355; first compound 0.6325 µM,0.366
same,relative viability,NCI-H1355; first compound 2 µM,0.399
same,relative viability,NCI-H1355; first compound 6.325 µM,0.372
same,relative viability,NCI-H1355; first compound 20 µM,0.253
same,relative viability,NCI-H1437; first compound 0.2 µM,0.935
same,relative viability,NCI-H1437; first compound 0.6325 µM,0.854
same,relative viability,NCI-H1437; first compound 2 µM,0.952
same,relative viability,NCI-H1437; first compound 6.325 µM,0.599
same,relative viability,NCI-H1437; first compound 20 µM,0.186
same,relative viability,NCI-H1648; first compound 0.2 µM,0.246
same,relative viability,NCI-H1648; first compound 0.6325 µM,0.272
same,relative viability,NCI-H1648; first compound 2 µM,0.28
same,relative viability,NCI-H1648; first compound 6.325 µM,0.275
same,relative viability,NCI-H1648; first compound 20 µM,0.226
same,relative viability,LCLC-97TM1; first compound 0.2 µM,0.437
same,relative viability,LCLC-97TM1; first compound 0.6325 µM,0.455
same,relative viability,LCLC-97TM1; first compound 2 µM,0.508
same,relative viability,LCLC-97TM1; first compound 6.325 µM,0.503
same,relative viability,LCLC-97TM1; first compound 20 µM,0.193
same,relative viability,NCI-H596; first compound 0.2 µM,0.622
same,relative viability,NCI-H596; first compound 0.6325 µM,0.757
same,relative viability,NCI-H596; first compound 2 µM,0.72
same,relative viability,NCI-H596; first compound 6.325 µM,0.628
same,relative viability,NCI-H596; first compound 20 µM,0.659
same,relative viability,NCI-H1623; first compound 0.2 µM,0.435
same,relative viability,NCI-H1623; first compound 0.6325 µM,0.416
same,relative viability,NCI-H1623; first compound 2 µM,0.412
same,relative viability,NCI-H1623; first compound 6.325 µM,0.36
same,relative viability,NCI-H1623; first compound 20 µM,0.383
CCNC(=O)c1noc(-c2cc(C(C)C)c(O)cc2O)c1-c1ccc(CN2CCOCC2)cc1 [Luminespib] + Cc1cc(Nc2cc(N3CCN(C)CC3)nc(Sc3ccc(NC(=O)C4CC4)cc3)n2)n[nH]1 [Tozasertib] (partner 0.1 µM),relative viability,NCI-H2342; first compound 0.002 µM,0.578
same,relative viability,NCI-H2342; first compound 0.006325 µM,0.576
same,relative viability,NCI-H2342; first compound 0.02 µM,0.361
same,relative viability,NCI-H2342; first compound 0.06325 µM,0.589
same,relative viability,NCI-H2342; first compound 0.2 µM,0.334
same,relative viability,NCI-H1355; first compound 0.002 µM,0.518
same,relative viability,NCI-H1355; first compound 0.006325 µM,0.577
same,relative viability,NCI-H1355; first compound 0.02 µM,0.421
same,relative viability,NCI-H1355; first compound 0.06325 µM,0.618
same,relative viability,NCI-H1355; first compound 0.2 µM,0.226
same,relative viability,NCI-H1437; first compound 0.002 µM,0.385
same,relative viability,NCI-H1437; first compound 0.006325 µM,0.359
same,relative viability,NCI-H1437; first compound 0.02 µM,0.497
same,relative viability,NCI-H1437; first compound 0.06325 µM,0.508
same,relative viability,NCI-H1437; first compound 0.2 µM,0.238
same,relative viability,NCI-H1648; first compound 0.006325 µM,0.373
same,relative viability,NCI-H1648; first compound 0.02 µM,0.362
same,relative viability,NCI-H1648; first compound 0.06325 µM,0.578
same,relative viability,NCI-H1648; first compound 0.2 µM,0.262
same,relative viability,LCLC-97TM1; first compound 0.002 µM,0.198
same,relative viability,LCLC-97TM1; first compound 0.006325 µM,0.268
same,relative viability,LCLC-97TM1; first compound 0.02 µM,0.117
same,relative viability,LCLC-97TM1; first compound 0.06325 µM,0.241
same,relative viability,LCLC-97TM1; first compound 0.2 µM,0.214
same,relative viability,NCI-H596; first compound 0.002 µM,0.959
same,relative viability,NCI-H596; first compound 0.006325 µM,1.01
same,relative viability,NCI-H596; first compound 0.02 µM,0.804
same,relative viability,NCI-H596; first compound 0.06325 µM,0.876
same,relative viability,NCI-H596; first compound 0.2 µM,0.657
same,relative viability,NCI-H1623; first compound 0.002 µM,0.398
same,relative viability,NCI-H1623; first compound 0.006325 µM,0.415
same,relative viability,NCI-H1623; first compound 0.02 µM,0.386
same,relative viability,NCI-H1623; first compound 0.06325 µM,0.306
same,relative viability,NCI-H1623; first compound 0.2 µM,0.297
Cc1csc(=NC2CCCCC2)n1/N=C/c1ccc(O)c(O)c1O [MIM1] + Cc1cc(Nc2cc(N3CCN(C)CC3)nc(Sc3ccc(NC(=O)C4CC4)cc3)n2)n[nH]1 [Tozasertib] (partner 0.1 µM),relative viability,NCI-H2342; first compound 0.2 µM,0.429
same,relative viability,NCI-H2342; first compound 0.6325 µM,0.58
same,relative viability,NCI-H2342; first compound 2 µM,0.53
same,relative viability,NCI-H2342; first compound 6.325 µM,0.508
same,relative viability,NCI-H2342; first compound 20 µM,0.575
same,relative viability,NCI-H1355; first compound 0.2 µM,0.588
same,relative viability,NCI-H1355; first compound 0.6325 µM,0.557
same,relative viability,NCI-H1355; first compound 2 µM,0.519
same,relative viability,NCI-H1355; first compound 6.325 µM,0.464
same,relative viability,NCI-H1355; first compound 20 µM,0.3
same,relative viability,NCI-H1437; first compound 0.2 µM,0.395
same,relative viability,NCI-H1437; first compound 0.6325 µM,0.434
same,relative viability,NCI-H1437; first compound 2 µM,0.437
same,relative viability,NCI-H1437; first compound 6.325 µM,0.346
same,relative viability,NCI-H1437; first compound 20 µM,0.197
same,relative viability,NCI-H1648; first compound 0.2 µM,0.371
same,relative viability,NCI-H1648; first compound 0.6325 µM,0.369
same,relative viability,NCI-H1648; first compound 2 µM,0.374
same,relative viability,NCI-H1648; first compound 6.325 µM,0.326
same,relative viability,NCI-H1648; first compound 20 µM,0.172
same,relative viability,LCLC-97TM1; first compound 0.2 µM,0.285
same,relative viability,LCLC-97TM1; first compound 0.6325 µM,0.237
same,relative viability,LCLC-97TM1; first compound 2 µM,0.292
same,relative viability,LCLC-97TM1; first compound 6.325 µM,0.192
same,relative viability,LCLC-97TM1; first compound 20 µM,0.109
same,relative viability,NCI-H596; first compound 0.2 µM,0.929
same,relative viability,NCI-H596; first compound 0.6325 µM,0.931
same,relative viability,NCI-H596; first compound 2 µM,0.817
same,relative viability,NCI-H596; first compound 6.325 µM,0.872
same,relative viability,NCI-H596; first compound 20 µM,0.782
same,relative viability,NCI-H1623; first compound 0.2 µM,0.454
same,relative viability,NCI-H1623; first compound 0.6325 µM,0.402
same,relative viability,NCI-H1623; first compound 2 µM,0.43
same,relative viability,NCI-H1623; first compound 6.325 µM,0.339
same,relative viability,NCI-H1623; first compound 20 µM,0.352
Cc1cn(-c2cc(NC(=O)c3ccc(C)c(Nc4nccc(-c5cccnc5)n4)c3)cc(C(F)(F)F)c2)cn1 [Nilotinib] + Cc1cc(Nc2cc(N3CCN(C)CC3)nc(Sc3ccc(NC(=O)C4CC4)cc3)n2)n[nH]1 [Tozasertib] (partner 0.1 µM),relative viability,NCI-H2342; first compound 0.001 µM,0.501
same,relative viability,NCI-H2342; first compound 0.003162 µM,0.561
same,relative viability,NCI-H2342; first compound 0.01 µM,0.45
same,relative viability,NCI-H2342; first compound 0.03162 µM,0.494
same,relative viability,NCI-H2342; first compound 0.1 µM,0.603
same,relative viability,NCI-H1355; first compound 0.001 µM,0.512
same,relative viability,NCI-H1355; first compound 0.003162 µM,0.454
same,relative viability,NCI-H1355; first compound 0.01 µM,0.442
same,relative viability,NCI-H1355; first compound 0.03162 µM,0.343
same,relative viability,NCI-H1355; first compound 0.1 µM,0.316
same,relative viability,NCI-H1437; first compound 0.001 µM,0.355
same,relative viability,NCI-H1437; first compound 0.003162 µM,0.499
same,relative viability,NCI-H1437; first compound 0.01 µM,0.4
same,relative viability,NCI-H1437; first compound 0.03162 µM,0.304
same,relative viability,NCI-H1437; first compound 0.1 µM,0.317
same,relative viability,NCI-H1648; first compound 0.003162 µM,0.395
same,relative viability,NCI-H1648; first compound 0.01 µM,0.389
same,relative viability,NCI-H1648; first compound 0.03162 µM,0.403
same,relative viability,NCI-H1648; first compound 0.1 µM,0.383
same,relative viability,LCLC-97TM1; first compound 0.001 µM,0.236
same,relative viability,LCLC-97TM1; first compound 0.003162 µM,0.254
same,relative viability,LCLC-97TM1; first compound 0.01 µM,0.161
same,relative viability,LCLC-97TM1; first compound 0.03162 µM,0.182
same,relative viability,LCLC-97TM1; first compound 0.1 µM,0.217
same,relative viability,NCI-H596; first compound 0.001 µM,0.799
same,relative viability,NCI-H596; first compound 0.003162 µM,0.972
same,relative viability,NCI-H596; first compound 0.01 µM,1.01
same,relative viability,NCI-H596; first compound 0.03162 µM,0.619
same,relative viability,NCI-H596; first compound 0.1 µM,0.68
same,relative viability,NCI-H1623; first compound 0.001 µM,0.415
same,relative viability,NCI-H1623; first compound 0.003162 µM,0.528
same,relative viability,NCI-H1623; first compound 0.01 µM,0.457
same,relative viability,NCI-H1623; first compound 0.03162 µM,0.401
same,relative viability,NCI-H1623; first compound 0.1 µM,0.885
CN1CCN(CCOc2cc(OC3CCOCC3)c3c(Nc4c(Cl)ccc5c4OCO5)ncnc3c2)CC1 [Saracatinib] + COc1cccc2cc(-c3nc([C@H]4CC[C@H](C(=O)O)CC4)n4ncnc(N)c34)[nH]c12 [OSI-027] (partner 0.5 µM),relative viability,NCI-H2342; first compound 0.02 µM,0.689
same,relative viability,NCI-H2342; first compound 0.2 µM,0.702
same,relative viability,NCI-H2342; first compound 0.6325 µM,0.64
same,relative viability,NCI-H2342; first compound 2 µM,0.637
same,relative viability,NCI-H1355; first compound 0.02 µM,0.482
same,relative viability,NCI-H1355; first compound 0.2 µM,0.379
same,relative viability,NCI-H1355; first compound 0.6325 µM,0.427
same,relative viability,NCI-H1355; first compound 2 µM,0.323
same,relative viability,NCI-H1437; first compound 0.02 µM,0.913
same,relative viability,NCI-H1437; first compound 0.2 µM,0.671
same,relative viability,NCI-H1437; first compound 0.6325 µM,0.96
same,relative viability,NCI-H1437; first compound 2 µM,0.812
same,relative viability,NCI-H1648; first compound 0.02 µM,0.265
same,relative viability,NCI-H1648; first compound 0.6325 µM,0.262
same,relative viability,NCI-H1648; first compound 2 µM,0.283
same,relative viability,LCLC-97TM1; first compound 0.02 µM,0.696
same,relative viability,LCLC-97TM1; first compound 0.2 µM,0.221
same,relative viability,LCLC-97TM1; first compound 0.6325 µM,0.7
same,relative viability,LCLC-97TM1; first compound 2 µM,0.505
same,relative viability,NCI-H596; first compound 0.02 µM,0.721
same,relative viability,NCI-H596; first compound 0.2 µM,0.429
same,relative viability,NCI-H596; first compound 0.6325 µM,0.623
same,relative viability,NCI-H596; first compound 2 µM,0.403
same,relative viability,NCI-H1623; first compound 0.02 µM,0.441
same,relative viability,NCI-H1623; first compound 0.2 µM,0.388
same,relative viability,NCI-H1623; first compound 0.6325 µM,0.404
same,relative viability,NCI-H1623; first compound 2 µM,0.357
